Assay results reported in article PMC9173784 (Proceedings of the National Academy of Sciences of the …, 2022).

Key:
[1] = test system: GALR1; experiment: Zn2+ inhibition assay, NanoBiT; assay type: cell-based, human
[2] = test system: GALRs; conditions: cited from earlier work
[3] = test system: ionotropic glutamate AMPA receptors; conditions: cited from earlier work
[4] = test system: GALR2; experiment: Zn2+ inhibition assay, NanoBiT; assay type: cell-based, human; conditions: HEK-293T cells, pH 7.3
[5] = test system: NMAR receptors; conditions: cited from earlier work
[6] = molecular target: GALR2 F264 mutant (human) (UniProt O43603)
[7] = molecular target: GALR1 F275 mutant (human) (UniProt P47211)
[8] = molecular target: GALR2 Q82^2.61 to alanine (human) (UniProt O43603)
[9] = molecular target: GALR1 Q92^2.61 to alanine (human) (UniProt P47211)
[10] = molecular target: GALR1 V274G (human) (UniProt P47211)
[11] = molecular target: GALR2 F271^7.32A (human) (UniProt O43603)
[12] = molecular target: GALR2 R184^5.35A (human) (UniProt O43603)
[13] = test system: GALRs; conditions: cited from earlier work; remark: listed apart in the source
[14] = test system: GALR2 or mutants; experiment: IP1 accumulation assay; assay type: cell-based, human; conditions: HEK-293T cells, 1 h
[15] = test system: GALR1; conditions: cited from earlier work
[16] = test system: GALR2; conditions: cited from earlier work
[17] = test system: GALR1 and its mutants; experiment: NanoBiT mini-Go recruitment assay; assay type: cell-based, human
[18] = test system: GALR1 or mutants; experiment: cAMP inhibition assay; assay type: cell-based, human; conditions: CHO cells
[19] = test system: GALR3; conditions: mutation of equivalent residue F263 in GALR3; cited from earlier work
[20] = test system: GALR2; experiment: NanoBiT assay, GALR2-Gαs coupling; assay type: cell-based, human; conditions: E(-3) in Gαs substituted with the equivalent Gαq residue
[21] = test system: GALR2 and its mutants; experiment: NanoBiT mini-Gq recruitment assay; assay type: cell-based, human; conditions: mutations of conserved TM3/TM5/TM6 residues in GALR2
[22] = test system: GALR2 with ICL3 of GALR1; experiment: GALR2-Go coupling with ICL3 substitution; assay type: cell-based, human; conditions: ICL3 (214 to 225) of GALR2 replaced by GALR1 residues
[23] = test system: GALR2; experiment: GALR2-Gq coupling of ICL2 and TM5 mutants; assay type: cell-based, human; conditions: L^5.65A mutation in GALR2
[24] = test system: GALR2; conditions: specific for GALR2 and GALR3; cited from earlier work
[25] = test system: GALR3; conditions: specific for GALR2 and GALR3; cited from earlier work
[26] = S235^ICL3 and K237^ICL3 mutations in GALR1

[Zn+2] [Zn^2+, ZnCl2]
character of Zn2+ inhibition ([1]; 1 μM galanin, wild-type GALR1, HEK-293T cells, pH 7.3): saturable or has a “ceiling” level
effect of mutation on zinc inhibition ([1]; GALR1 H112^3.29A, 1 μM galanin, HEK-293T cells): little influence
effect of mutation on zinc inhibition ([1]; GALR1 H263^6.51F, 1 μM galanin, HEK-293T cells): little influence
effect of mutation on zinc inhibition ([1]; GALR1 H264^6.52F, 1 μM galanin, HEK-293T cells): little influence
effect on galanin concentration-response curve ([1]; H267^6.55A mutant of GALR1, HEK-293T cells): little effect
allosteric modulation of GALR1 ([1]; conclusion from NanoBiT assay, listed as zinc ion): negative allosteric regulator
inhibition of galanin binding to the receptors [2]: can inhibit galanin binding
effect on AMPA receptors [3]: inhibits
effect on galanin-induced GALR2 activation ([4]; below millimolar Zn2+): little effect
Zn2+ concentration at which galanin activation of GALR2 is diminished ([4]; galanin-induced, above the physiological concentration): millimolar range
effect on NMDA receptors [5]: inhibits

N-terminal region of galanin ([1]–[16]): N-terminal region of galanin
binding affinity for the receptors relative to full-length galanin [2]: comparable to the full-length galanin

galanin peptide 1 through 30
fold reduction of galanin potency, IP1 accumulation assay [6]: 100 fold
fold reduction of galanin potency, cAMP inhibition assay [7]: 100 fold
fold reduction of galanin potency, IP1 accumulation assay [8]: 100 fold
fold reduction of galanin potency, cAMP inhibition assay [9]: 100 fold
fold reduction of agonist potency, cAMP inhibition assay [10]: 370 fold
fold reduction of galanin potency, IP1 accumulation assay [11]: 100 fold
fold reduction of galanin potency, IP1 accumulation assay [12]: 10 fold

galanin-like peptide (GALP): endogenous galanin-like peptide (APAHRGRGGWTLNSAGYLLGPVLHLPQMGDQDGKRETALEILDLWKAIDGLPYSHPPQPS; Galanin-like peptide; UniProt Q9UBC7 25-84, looked up)
activation of GALRs [13]: activate GALRs

galanin: 29- or 30-amino acid peptide, endogenous ligand; galanin peptide 1 through 30 (MedChemExpress)
reduction of galanin potency vs wild type ([14]; Q82^2.61 to alanine mutant of GALR2): ~100 fold
effect of mutation on galanin potency ([14]; Q263A mutant of GALR2 (ECL3)): little effect
reduction of galanin potency vs wild type ([14]; R184^5.35A mutant of GALR2): about 10 fold
reduction of galanin potency vs wild type ([14]; mutation of F264 (ECL3) in GALR2): ~100 fold
reduction of galanin binding affinity ([15]; H267^6.55 mutation of GALR1): more than 100 fold
galanin binding affinity of mutants ([15]; mutations of F115 and H264 of GALR1): significantly reduce
galanin binding to mutant ([16]; mutation of F264 in GALR2): completely abolishes
galanin binding affinity of mutants ([16]; mutations of F106, H252, H253, I256, W260, and F261 of GALR2): significantly reduce
effect of mutation on galanin maximum response [17, 26]: dramatically reduced
effect of mutation on galanin potency [17, 26]: modest effect
recruitment of Gi ([17]; mutations of conserved TM3/TM5/TM6 residues in GALR1): impair
reduction of agonist (galanin) potency vs wild type ([18]; V274G mutant of GALR1 (ECL3), 1 μM forskolin): about 370 fold
effect of mutation on galanin potency ([18]; W188^ECL2 mutant of GALR1, compared with H176^ECL2 mutant of GALR2): distinct effect
reduction of galanin potency vs wild type ([18]; mutation of F275 (ECL3) in GALR1, 1 μM forskolin): ~100 fold
galanin binding to mutant [19]: completely abolishes
coupling efficiency between GALR2 and Gs [20]: significantly increased
binding affinity for GALRs [2]: subnanomolar range
recruitment of Gq [21]: impair
ability of GALR2 to bind Go [22]: acquired the ability to bind Go
effect of mutation on galanin potency [23]: significantly decreased

B1: spexin: endogenous peptide spexin has A7M and G8L mutations in galanin (peptide, UniProt Q9BT56 27-116, looked up)
Spexin: APQRLLERRNWTPQAMLYLKGAQGRRFISDQSRRKDLSDRPLPERRSPNPQLLTIPEAATILLASLQKSPEDEEKNFDQTRFLEDSLLNW
modifications: Spexin
activation of GALR2 [24]: specifically activates GALR2 and GALR3
activation of GALR3 [25]: specifically activates GALR2 and GALR3
activation of GALRs [13]: activate GALRs
